For one test, the system named is M. Smegmatis ATCC607. The test can be described thus: In-vitro method for testing compounds for anti-bacterial activity against strain M. smegmatis ATCC607 (Alamar Blue growth inhibition). It counts as cell-based. As to conditions: M. smegmatis ATCC607; pIC50 = -logIC50, IC50 in M, 50% inhibitory concentration for bacterial growth; 48 hours incubation. Put shortly: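 About 250 CFU/well M. smegmatis ATCC607 in Mueller-Hinton broth exposed to five-fold serial compound dilutions, 48 h at 37 °C, humidified 5% CO2. Growth read by Alamar Blue fluorescence (ex 530/em 590 nm) after 2 h further incubation; % growth inhibition calculated.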

Test [1] deals with Mycobacterium tuberculosis (strain H37RV). Kind of test: In-vitro method for testing compounds against M. tuberculosis (resazurin growth inhibition, MIC). As to conditions: MIC data representing IC90's, 7 days incubation, resazurin fluorescence. The format is cell-based. (Resazurin is reduced to fluorescent resorufin, in cell work by metabolically active cells.)

pIC50 and MIC data for 29 compounds are collected here from US7498343B2, “Mycobacterial inhibitors” (priority 2002, dated 2009).

In the case of `COc1nc2ccc(Br)cc2cc1C(c1ccccc1)C(O)(CCN1CCCC1)c1ccc2ccccc2c1` (single isomer, unassigned) [Compound 144], the pIC50 (usually the negative decadic logarithm of the IC50, by convention in mol/L) in the test with M. Smegmatis ATCC607 turned out to be 7.0. In test [1], the MIC amounted to 52.46 microgram/ml.

As for `COc1nc2ccc(Br)cc2cc1C(c1ccccc1)C(O)(CCN1CCN(C)CC1)c1cccc2ccccc12` (single isomer, unassigned) [Compound 149], in the test with M. Smegmatis ATCC607, the pIC50 is reported as 5.1. In test [1], this compound displayed an MIC of 48.50 microgram/ml.

In the test with M. Smegmatis ATCC607, `COc1nc2ccc(Br)cc2cc1C(c1ccccc1)C(O)(CCN(C)C)c1cc(Br)cc2ccccc12` (single isomer, unassigned) [Compound 150] yielded a pIC50 of 5.7. The compound also showed an MIC in test [1] of 63.44 microgram/ml.

In turn, `COc1nc2ccc(Br)cc2cc1C(c1ccccc1)C(O)(CCN1CCN(C)CC1)c1cc(Br)cc2ccccc12` (single isomer, unassigned) [Compound 151] came in with a pIC50 in the test on M. Smegmatis ATCC607 of 5.0. This compound returned an MIC in test [1] of 13.76 microgram/ml.

For the compound `COc1nc2ccc(Br)cc2cc1C(c1ccccc1)C(O)(CCN1CCN(C)CC1)c1cc(Br)cc2ccccc12` (single isomer, unassigned) [Compound 152], in the test with M. Smegmatis ATCC607, the pIC50 is reported as 5.8. The MIC in test [1] was found to be 10.93 microgram/ml.

Turning to `COc1nc2ccc(Br)cc2cc1C(c1ccccc1)C(O)(CCN1CCN(C)CC1)c1ccc2cc(Br)ccc2c1` (single isomer, unassigned) [Compound 153], the negative-log IC50 (pIC50) with M. Smegmatis ATCC607 was found to be 5.3. The compound further came in with an MIC in test [1] of 54.77 microgram/ml.

Turning to `COc1nc2ccc(Br)cc2cc1C(c1ccccc1)C(O)(CCN1CCN(C)CC1)c1ccc2cc(Br)ccc2c1` (single isomer, unassigned) [Compound 154], the pIC50 in the test on M. Smegmatis ATCC607 was found to be 4.9. The compound also yielded an MIC in test [1] of 68.95 microgram/ml.

With `COc1nc2ccc(Br)cc2cc1C(c1ccccc1)C(O)(CCN1CCN(C)CC1)c1cccc2ccccc12` (single isomer, unassigned) [Compound 156], the pIC50 with M. Smegmatis ATCC607 was 5.3. In test [1], this compound gave an MIC of 9.68 microgram/ml.

`COc1nc2ccc(Br)cc2cc1C(c1ccccc1)C(O)(CCN1CCCC1)c1ccc2cc(Br)ccc2c1` (single isomer, unassigned) [Compound 157] showed a pIC50 with M. Smegmatis ATCC607 of 5.6. The compound also registered an MIC in test [1] of 52.46 microgram/ml.

In the test on M. Smegmatis ATCC607, `COc1nc2ccc(Br)cc2cc1C(c1ccccc1)C(O)(CCN1CCOCC1)c1cccc2ccccc12` (single isomer, unassigned) [Compound 158] came in with a pIC50 of 5.3. In addition, in test [1], the MIC is on record as 59.76 microgram/ml.

In the test with M. Smegmatis ATCC607, `COc1ccc2cc(C(O)(CCN(C)C)C(c3ccccc3)c3cc4cc(Br)ccc4nc3OC)ccc2c1` (single isomer, unassigned) [Compound 162] yielded a pIC50 of 7.0. The MIC in test [1] came to 9.28 microgram/ml.

In the case of `COc1ccc2cc(C(O)(CCN(C)C)C(c3ccccc3)c3cc4cc(Br)ccc4nc3OC)ccc2c1` (single isomer, unassigned) [Compound 163], the pIC50 in the test on M. Smegmatis ATCC607 turned out to be 5.9. In test [1], this compound had an MIC of 46.51 microgram/ml.

In the test on M. Smegmatis ATCC607, `COCCOc1nc2ccc(Br)cc2cc1C(c1ccccc1)C(O)(CCN(C)C)c1cccc(F)c1` (single isomer, unassigned) [Compound 164] displayed a pIC50 of 7.9. Further, the MIC in test [1] was 0.36 microgram/ml.

In the test with M. Smegmatis ATCC607, `COCCOc1nc2ccc(Br)cc2cc1C(c1ccccc1)C(O)(CCN(C)C)c1cccc(F)c1` (single isomer, unassigned) [Compound 165] came in with a pIC50 of 6.6. In test [1], the MIC stood at 2.26 microgram/ml.

As for `COc1nc2ccc(Br)cc2cc1C(c1ccccc1)C(O)(CCN(C)C)c1c(F)cccc1F` (single isomer, unassigned) [Compound 167], in the test with M. Smegmatis ATCC607, the pIC50 is given as 5.5. Further, the MIC in test [1] was 43.01 microgram/ml.

With `COc1nc2ccc(Br)cc2cc1C(c1ccccc1)C(O)(CCn1ccnc1)c1cccc2ccccc12` (single isomer, unassigned) [Compound 173], the negative logarithm of the IC50 (pIC50) with M. Smegmatis ATCC607 is given as 4.7. This compound had an MIC in test [1] of 57.85 microgram/ml.

Consider `COc1nc2ccc(-c3ccco3)cc2cc1C(c1ccccc1)C(O)(CCN(C)C)c1cccc(F)c1` (single isomer, unassigned) [Compound 174], for which the negative-log IC50 (pIC50) in the test with M. Smegmatis ATCC607 is recorded as 6.8. The compound also yielded an MIC in test [1] of 0.06 microgram/ml.

The compound `COc1nc2ccc(-c3ccco3)cc2cc1C(c1ccccc1)C(O)(CCN(C)C)c1cccc(F)c1` (single isomer, unassigned) [Compound 175] returned a pIC50 in the test with M. Smegmatis ATCC607 of 6.5. Besides, the MIC in test [1] turned out to be 10.19 microgram/ml.

`COCCOc1nc2ccc(Br)cc2cc1C(c1ccccc1)C(O)(CCN(C)C)c1cccc2ccccc12` (single isomer, unassigned) [Compound 176] displayed a pIC50 in the test with M. Smegmatis ATCC607 of 6.8. The compound further registered an MIC in test [1] of 9.50 microgram/ml.

For the compound `COc1nc2ccc(Br)cc2cc1C(c1ccccc1)C(O)(CCN1CCOCC1)c1ccc2cc(Br)ccc2c1` (single isomer, unassigned) [Compound 178], in the test with M. Smegmatis ATCC607, the pIC50 amounted to 4.5. Also, the MIC in test [1] turned out to be 67.65 microgram/ml.

With `COc1nc2ccc(C#N)cc2cc1C(c1ccccc1)C(O)(CCN(C)C)c1cccc(F)c1` (single isomer, unassigned) [Compound 179], the negative-log IC50 (pIC50) in the test with M. Smegmatis ATCC607 was found to be 7.0. The same compound registered an MIC in test [1] of 1.48 microgram/ml.

`COc1nc2ccc(C#N)cc2cc1C(c1ccccc1)C(O)(CCN(C)C)c1cccc(F)c1` (single isomer, unassigned) [Compound 180] had a pIC50 in the test on M. Smegmatis ATCC607 of 6.6. The compound further yielded an MIC in test [1] of 3.73 microgram/ml.

On to `COc1nc2ccc(Br)cc2cc1C(c1ccccc1)C(O)(CCN(C)C)c1ccc(F)cc1` (single isomer, unassigned) [Compound 181], for which the pIC50 with M. Smegmatis ATCC607 was determined as 6.9. For the same compound, the MIC in test [1] is reported as 8.30 microgram/ml.

In the case of `COc1nc2ccc(Br)cc2cc1C(c1ccccc1)C(O)(CCN(C)C)c1ccc(F)cc1` (single isomer, unassigned) [Compound 182], the negative-log IC50 (pIC50) in the test with M. Smegmatis ATCC607 was 6.3. In addition, the MIC in test [1] amounted to 8.30 microgram/ml.

In the case of `COc1nc2ccc(Br)cc2cc1C(c1ccccc1)C(O)(CCN(C)C)c1cccc(C(F)(F)F)c1` (single isomer, unassigned) [Compound 183], the pIC50 in the test with M. Smegmatis ATCC607 is on record as 8.3. Besides, the MIC in test [1] is reported as 0.36 microgram/ml.

Regarding `COc1nc2ccc(Br)cc2cc1C(c1ccccc1)C(O)(CCCN(C)C)c1cccc2ccccc12` (single isomer, unassigned) [Compound 186], the pIC50 with M. Smegmatis ATCC607 is listed as 4.5. This compound also came in with an MIC in test [1] of 56.96 microgram/ml.

Take `COc1nc2ccc(Br)cc2cc1C(c1ccccc1)C(O)(CCCCN(C)C)c1ccc2ccccc2c1` (single isomer, unassigned) [Compound 190]: the pIC50 in the test on M. Smegmatis ATCC607 was 6.5. The MIC in test [1] is listed as 1.85 microgram/ml.

The compound `COc1nc2ccc(Br)cc2cc1C(c1ccccc1)C(O)(CCCCN(C)C)c1ccc2ccccc2c1` (single isomer, unassigned) [Compound 191] yielded a pIC50 in the test with M. Smegmatis ATCC607 of 6.5. For the same compound, in test [1], the MIC came out at 1.85 microgram/ml.

For the compound `CCN(CC)CCCC(O)(c1ccc2ccccc2c1)C(c1ccccc1)c1cc2cc(Br)ccc2nc1OC` (single isomer, unassigned) [Compound 192], the negative-log IC50 (pIC50) in the test with M. Smegmatis ATCC607 is given as 6.5. In test [1], the MIC is recorded as 5.98 microgram/ml.
